One assay deals with T1, PI3Kα (Homo sapiens, UniProt P42336).
T1 construct: Full length p110 subunits of PI3K α, β and δ, N-terminally labeled with polyHis tag; polyHis (N); made in house; host or cells: Sf9 insect cells (baculovirus)
The assay is described as follows: In vitro PI3K AlphaScreen assay. Type of assay: biochemical. Conditions: average if run more than once.

Another assay deals with T2, mTOR (Homo sapiens, UniProt P42345).
T2 construct: purchased Invitrogen (Carlsbad, Calif.)
The assay is described as follows: In vitro mTOR assay (Lanthascreen). The assay is classed as biochemical. Conditions: average if run more than once. In short, it runs like this: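 mTOR activity measured by TR-FRET as Thr46 phosphorylation of GFP-4E-BP1, detected with Tb-labelled anti-phospho-4E-BP1 [T46] antibody after EDTA stop. Final 50 ng/mL mTOR, 400 nM GFP-4E-BP1, 7 μM ATP in HEPES pH 7.5 with 10 mM MnCl2; 1 h, room temperature. 10-point 1:3 compound series.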
In general terms: Time-resolved FRET reads energy transfer from a long-lived donor to a nearby acceptor.

For assay [1], the system named is phosphorylation of Akt at Serine 473. The assay is described as follows: pAkt AlphaScreen (U87 cell). The assay is classed as cell-based. Conditions: Homo sapiens, U-87 MG; U87 MG cells, pAkt Ser473; average. The protocol: pAkt Alphascreen (U87 Cell)
The pAkt AlphaScreen® assay (PerkinElmer, Waltham, Mass.) determines whether there is phosphorylation of Akt at Serine 473 by recruitment of a phosphospecific antibody. This assay was performed using U87 MG cells. The U87 growth media consists of MEM (Gibco, Carlsbad, Calif.) supplemented with 10% FBS (Gibco,), 1× Non-Essential Amino Acids (Gibco,) and 1× Penicillin/Streptomycin/Glutamine (Gibco). The cells were maintained weekly using 0.05% Trypsin (Gibco) and replated in 150 mm TC-Treated Culture Dishes (Corning, Corning, N.Y.).
The first day of the assay, the adherent cells were trypsinized, media was added to the loose cells and cells were mixed to a homogenous mixture. 0.5 ml of the homogenous mixture was counted on the Beckman Coulter® Vi-CELL™ XR (Fullerton, Calif.). 50 frames of cells were counted and the number of viable cells was determined. The cells were then diluted to 0.25 million cells per ml, and centrifuged at 200 rcf for 5 minutes. The media was removed and the cells were reconstituted in fresh media for plating. The cells were plated at 20 μl per well on the PerkinElmer® FlexDrop PLUS in Low Volume 384 Well White Tissue Culture Plates (Corning) with a final cell density of 5K cells per well. The plates were incubated overnight at 37° Celsius, 5% CO2.
On the second day, the compound plates were prepared, the cells were treated with compound and the pAkt reaction mix was added to the cell lysate. 384 well compound plates were prepared containing 1 μl of compound per well starting at 5 mM and diluted 1:2 across the row, resulting in a 22 well serial dilution. 39 μl of growth media was added to the compound plate in rows 1-22 using the PerkinElmer® FlexDrop PLUS resulting in a DMSO concentration of 2.5%. The cell plates and diluted compound plates were put onto the VELOCITY11™ VPREP™ 384 ST where the compound plate was mixed and 5 μl of serially diluted compound or controls was added to the cell plate. The final concentration of the compounds was 25 μM serially diluted to 11.9 pM in 0.5% DMSO. The cell plates were then incubated with compound for two hours at 37° Celsius, 5% CO2. After two hours, the media in the cell plates was aspirated using the BioTek® ELx405HT plate washer (Winooski, Vt.) removing the majority of media and compound without disturbing the adherent U87 cells. The following assay reagents are components of the SureFire® Akt (Ser 473) Phosphorylation 50K Point Kit (TGR BioSciences, Adelaide, Austalia) and an IgG Detection Kit (PerkinElmer, Waltham, Mass.). 5 μl of 1× Lysis Buffer was added to each well using the PerkinElmer® FlexDrop PLUS. The plates were then incubated at room temperature on a shaker for ten minutes. The AlphaScreen® reaction was prepared under low light conditions (subdued or green light) including p-Akt (Ser 473) Reaction Buffer, Dilution Buffer, Activation Buffer, Acceptor Beads and Donor Beads at a ratio of 40:20:10:1:1 respectively. The AlphaScreen® reaction was added to the cell lysate at 6 μl per well using the PerkinElmer® FlexDrop PLUS. The plates were placed in a humid environment to reduce edge effects and incubated overnight at room temperature with restricted air flow in the dark.
On the final day of the experiment, the plates were read on the PerkinElmer® EnVision™ 2103 Multilable Reader using the standard AlphaScreen® readout. The POC is calculated and the data is analyzed to report the IC50 IP for pAkt at Serine 473.
Activity data for the compounds tested in the PI3K cell based Akt assay is provided in Table 2 under the column heading U87
Background: In Alpha technology, singlet oxygen from a donor bead excites a nearby acceptor bead.

Each structure is given as a SMILES string.

T1 sequence (P42336 whole entry): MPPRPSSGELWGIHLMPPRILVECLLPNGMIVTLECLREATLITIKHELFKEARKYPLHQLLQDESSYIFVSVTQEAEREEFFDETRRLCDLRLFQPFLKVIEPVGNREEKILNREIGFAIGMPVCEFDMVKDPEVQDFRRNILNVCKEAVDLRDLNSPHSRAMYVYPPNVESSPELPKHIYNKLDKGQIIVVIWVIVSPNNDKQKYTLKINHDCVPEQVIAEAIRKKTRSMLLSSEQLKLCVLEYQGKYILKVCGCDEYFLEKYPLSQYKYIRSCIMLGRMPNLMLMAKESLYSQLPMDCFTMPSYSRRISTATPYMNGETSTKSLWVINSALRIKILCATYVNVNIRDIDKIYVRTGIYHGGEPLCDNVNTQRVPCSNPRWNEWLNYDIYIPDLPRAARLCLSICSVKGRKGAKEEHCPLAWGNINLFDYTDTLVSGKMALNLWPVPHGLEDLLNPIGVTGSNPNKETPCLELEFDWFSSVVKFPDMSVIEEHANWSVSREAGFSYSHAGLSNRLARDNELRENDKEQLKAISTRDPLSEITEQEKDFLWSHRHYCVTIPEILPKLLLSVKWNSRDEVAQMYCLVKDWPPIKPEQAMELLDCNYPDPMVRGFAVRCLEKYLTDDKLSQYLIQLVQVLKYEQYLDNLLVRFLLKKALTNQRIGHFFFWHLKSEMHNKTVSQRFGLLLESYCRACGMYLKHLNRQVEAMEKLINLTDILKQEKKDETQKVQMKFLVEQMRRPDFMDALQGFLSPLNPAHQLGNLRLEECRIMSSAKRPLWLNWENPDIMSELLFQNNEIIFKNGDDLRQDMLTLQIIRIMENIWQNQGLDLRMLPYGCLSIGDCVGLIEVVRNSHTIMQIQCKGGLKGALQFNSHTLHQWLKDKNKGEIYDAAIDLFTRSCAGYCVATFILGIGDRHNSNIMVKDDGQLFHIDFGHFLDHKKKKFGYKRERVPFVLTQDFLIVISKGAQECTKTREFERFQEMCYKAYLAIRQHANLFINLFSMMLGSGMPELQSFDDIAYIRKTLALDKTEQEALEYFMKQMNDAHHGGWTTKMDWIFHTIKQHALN
T1 sequence (P27986 whole entry partner): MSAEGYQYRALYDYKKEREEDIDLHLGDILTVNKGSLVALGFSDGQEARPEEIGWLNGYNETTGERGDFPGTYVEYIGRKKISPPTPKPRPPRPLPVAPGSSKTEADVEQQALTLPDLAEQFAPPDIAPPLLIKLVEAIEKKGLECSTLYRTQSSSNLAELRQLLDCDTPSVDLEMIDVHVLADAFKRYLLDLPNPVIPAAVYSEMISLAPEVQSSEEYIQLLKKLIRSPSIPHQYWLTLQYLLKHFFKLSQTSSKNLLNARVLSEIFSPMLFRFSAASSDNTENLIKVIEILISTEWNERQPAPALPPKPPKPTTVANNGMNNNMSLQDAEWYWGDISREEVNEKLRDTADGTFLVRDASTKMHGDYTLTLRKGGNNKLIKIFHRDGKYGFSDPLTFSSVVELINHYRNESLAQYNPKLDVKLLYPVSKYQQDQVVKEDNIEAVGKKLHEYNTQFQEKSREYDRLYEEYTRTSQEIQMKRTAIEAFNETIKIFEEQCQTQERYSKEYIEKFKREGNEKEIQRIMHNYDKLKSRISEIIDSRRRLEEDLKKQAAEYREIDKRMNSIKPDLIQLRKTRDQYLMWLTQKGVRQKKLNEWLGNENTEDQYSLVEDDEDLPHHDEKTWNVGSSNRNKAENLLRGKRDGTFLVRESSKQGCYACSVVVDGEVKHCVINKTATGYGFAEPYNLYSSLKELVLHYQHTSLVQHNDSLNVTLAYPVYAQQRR
T2 sequence (P42345 1360-2549 limits assumed): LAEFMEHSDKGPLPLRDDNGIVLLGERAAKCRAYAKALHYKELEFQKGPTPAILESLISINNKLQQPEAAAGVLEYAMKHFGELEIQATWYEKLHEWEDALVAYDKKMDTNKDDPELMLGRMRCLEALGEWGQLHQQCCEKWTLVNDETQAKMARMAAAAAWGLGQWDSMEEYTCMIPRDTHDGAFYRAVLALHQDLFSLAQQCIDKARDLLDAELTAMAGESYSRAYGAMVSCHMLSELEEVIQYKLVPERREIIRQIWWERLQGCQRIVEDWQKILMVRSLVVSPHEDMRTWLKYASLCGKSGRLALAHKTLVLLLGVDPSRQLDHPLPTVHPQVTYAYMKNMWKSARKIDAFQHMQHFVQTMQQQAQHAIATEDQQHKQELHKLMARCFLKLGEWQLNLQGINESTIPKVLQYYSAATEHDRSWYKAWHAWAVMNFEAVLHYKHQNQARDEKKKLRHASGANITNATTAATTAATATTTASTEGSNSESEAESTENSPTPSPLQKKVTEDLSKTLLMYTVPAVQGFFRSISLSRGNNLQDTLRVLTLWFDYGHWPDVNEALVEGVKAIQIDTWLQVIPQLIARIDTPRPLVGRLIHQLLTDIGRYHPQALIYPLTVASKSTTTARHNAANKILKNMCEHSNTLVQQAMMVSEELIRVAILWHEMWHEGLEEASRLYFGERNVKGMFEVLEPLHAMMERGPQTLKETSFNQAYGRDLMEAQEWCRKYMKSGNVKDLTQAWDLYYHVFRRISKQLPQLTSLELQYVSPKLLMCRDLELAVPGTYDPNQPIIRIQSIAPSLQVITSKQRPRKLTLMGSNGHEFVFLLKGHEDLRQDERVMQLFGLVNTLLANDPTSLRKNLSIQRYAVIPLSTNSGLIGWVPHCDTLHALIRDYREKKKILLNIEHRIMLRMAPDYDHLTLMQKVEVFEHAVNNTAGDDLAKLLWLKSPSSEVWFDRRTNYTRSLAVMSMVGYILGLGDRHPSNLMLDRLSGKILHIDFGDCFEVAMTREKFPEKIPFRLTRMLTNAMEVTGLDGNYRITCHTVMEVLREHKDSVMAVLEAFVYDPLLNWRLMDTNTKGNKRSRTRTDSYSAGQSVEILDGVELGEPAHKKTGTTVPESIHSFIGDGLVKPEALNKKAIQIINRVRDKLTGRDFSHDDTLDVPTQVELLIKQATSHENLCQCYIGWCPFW
Experimental for PI3Kα: In Vitro PI3K Alphascreen® Assay
The PI3K AlphaScreen® assay (PerkinElmer, Waltham, Mass.) measures the activity of a panel of four phosphoinositide 3-kinases: PI3Kα, PI3Kβ, PI3Kγ, and PI3Kδ. Each of these enzymes phosphorylates the 3′-hydroxyl group on phosphatidylinositiol (4,5)-bisphosphate (PIP2) to produce phosphatidylinositol (3,4,5)-trisphosphate (PIP3). This phosphorylation activity is measured using a GST-tagged PIP3 binding protein (Echelon Biosciences, Salt Lake City, Utah), an anti-GST-tagged Acceptor bead, and streptavidin-Donor bead. […] In the absence of this interaction, proximity of the Donor and Acceptor beads is decreased, producing a loss of luminescent signal which is inversely proportional to PI3K activity.
The enzyme reaction buffer is made using sterile water (Baxter, Deerfield, Ill.) and 50 mM Tris HCl pH 7, 14 mM MgCl2, 2 mM sodium cholate, and 100 mM NaCl. 2 mM DTT is added fresh the day of the experiment. The AlphaScreen® reaction buffer is made using sterile water and 10 mM Tris HCl pH 7.5, 150 mM NaCl, 0.10% Tween 20, and 30 mM EDTA. 1 mM DTT is added fresh the day of the experiment.
The source plates for this assay are 384-well Greiner clear polypropylene plates containing test compounds at 5mM and diluted 1:2 over 22 points. […] Source plates are replicated into 384-well Optiplates (PerkinElmer, Waltham, Mass.), 0.5 μL/well, to make assay-ready plates.
The different PI3K isoforms are each diluted in enzyme reaction buffer to 2× working solutions. […] Two different 2× substrate solutions are made in enzyme reaction buffer. In one solution, PI(4,5)P2 (Echelon Biosciences, Salt Lake City, Utah) is diluted to 10 μM and ATP is diluted to 20 μM. This solution is used in the assays testing PI3Kα and PI3Kβ. In a second solution, PI(4,5)P2 is diluted to 10 μM and ATP is diluted to 8 μM. This solution used in the assays testing PI3Kγ and PI3Kδ.
The AlphaScreen® reaction solutions are made using beads from the anti-GST AlphaScreen® kit (PerkinElmer, Waltham, Mass.). Two solutions are made in Alphascreen reaction buffer to 4× working concentrations. In one solution, biotinylated-IP4 (Echelon Biosciences, Salt Lake City, Utah) is diluted to 40 nM and streptavadin-Donor Beads are diluted to 80 μg/mL. In the second solution, PIP3-binding protein (Echelon Biosciences, Salt Lake City, Utah) is diluted to 40 nM and anti-GST-Acceptor Beads are diluted to 80 μg/mL. 10 μL/well of enzyme reaction buffer is added to Column 24 of the assay ready plates in place of enzyme. This is done for plates in the PI3Kα, β, and 67 assays.
Using a 384-well dispensing Multidrop (Titertek, Huntsville, Ala.), 10 μL/well of 2× enzyme (PI3Kα, β, δ) is added to Columns 1-23 of the appropriate assay ready plates (for PI3Kγ 10 μL is added to Columns 1-24). 10 μL/well of the appropriate substrate solution (the solution with 20 μM ATP for PI3Kα and β assays, and the solution with 8 μM ATP for PI3Kγ and δ assays) is then added to Columns 1-24 of the plates. Plates are then incubated at room temperature for 20 minutes.
In the dark, 10 μL/well of the Donor Bead solution is added to Columns 1-24 of the plates to quench the enzyme reaction. The plates are incubated at room temperature for 30 minutes. Still in the dark, 10 μL/well of the Acceptor Bead solution is also added to Columns 1-24 of the plates. The plates are then incubated in the dark for 1.5 hours. The plates are read on an Envision Multilabel Plate Reader (PerkinElmer, Waltham, Mass.) with a 680 nm excitation filter and a 520-620 nm emission filter.

As to `CN(C)S(=O)(=O)Nc1cc(-c2ccc3nccc(Cl)c3c2)cnc1Cl` [Example 125, N′-(2-chloro-5-(4-chloro-6-quinolinyl)-3-pyridinyl)-N,N-dimethylsulfamide], the Ki (commonly a dissociation constant, usually derived from enzyme kinetics or from competition with a known ligand) on PI3Kα came out at 0.0033 µM. The figures for the IC50 (on mTOR; in assay [1]) were 0.0077 µM and 0.723 µM, respectively.

For `CCN(CCC#N)c1ccnc2ccc(-c3cnc(Cl)c(NS(C)(=O)=O)c3)cc12` [Example 78, N-(2-chloro-5-(4-((2-cyanoethyl)(ethyl)amino)-6-quinolinyl)-3-pyridinyl)methanesulfonamide], the affinity on PI3Kα, expressed as Ki, was 0.0276 µM. The figures for the concentration for half-maximal inhibition (IC50) (against mTOR; in assay [1]) were 0.0117 µM and 0.193 µM, respectively.

In the case of `C[C@@H]1CN(c2ccnc3ccc(-c4cnc(Cl)c(NS(C)(=O)=O)c4)cc23)C[C@@H](C)O1` (racemic) [Example 104, N-(2-chloro-5-(4-(2,6-dimethyl-4-morpholinyl)-6-quinolinyl)-3-pyridinyl)methanesulfonamide], affinity at PI3Kα was put at a Ki of 0.0083 µM. Moreover, the half-inhibitory concentration (IC50) (usually the concentration at which inhibition is half-maximal) at mTOR amounted to 0.0058 µM; in assay [1] it was 0.0284 µM.

`CS(=O)(=O)Nc1cc(-c2ccc3nccc(-c4ccnc(C(F)(F)F)c4)c3c2)cnc1Cl` [Example 111, N-(2-chloro-5-(4-(2-(trifluoromethyl)-4-pyridinyl)-6-quinolinyl)-3-pyridinyl)methanesulfonamide] returned a Ki at PI3Kα of 0.003 µM. The IC50 was found to be 0.0028 µM at mTOR and 0.0261 µM in assay [1].

On PI3Kα, `CCN(Cc1noc(C2CC2)n1)c1ccnc2ccc(-c3cnc(Cl)c(NS(C)(=O)=O)c3)cc12` [Example 77, N-(2-chloro-5-(4-(((5-cyclopropyl-1,2,4-oxadiazol-3-yl)methyl)(ethyl)amino)-6-quinolinyl)-3-pyridinyl)methanesulfonamide] displayed an inhibition constant Ki of 0.0184 µM. The half-maximal inhibitory concentration (IC50) at mTOR was 0.0677 µM; in assay [1], 1.93 µM.

As for `CN(Cc1cccc(F)c1)c1ccnc2ccc(-c3cnc(Cl)c(NS(C)(=O)=O)c3)cc12` [Example 85, N-(2-chloro-5-(4-((3-fluorobenzyl)(methyl)amino)-6-quinolinyl)-3-pyridinyl)methanesulfonamide], on PI3Kα, the affinity, expressed as Ki, was 0.0158 µM. The IC50 against mTOR was 0.0621 µM; in assay [1] it was 1.66 µM.

`O=S(=O)(Nc1cc(-c2ccc3c(c2)OCCO3)cnc1Cl)c1ccc(F)cc1` [Example 128, N-(2-Chloro-5-(2,3-dihydrobenzo[b][1,4]dioxin-6-yl)pyridin-3-yl)-4-fluorobenzenesulfonamide] gave an inhibition constant (Ki) on PI3Kα of 0.0333 µM. In addition, the results for the IC50 (on mTOR; in assay [1]) were 0.0527 µM and 20.4 µM, respectively.

Turning to `C[C@@H]1CN(c2ccnc3ccc(-c4cnc(Cl)c(NS(C)(=O)=O)c4)cc23)C[C@@H](C)O1` [Example 110, N-(2-chloro-5-(4-((2R,6R)-2,6-dimethyl-4-morpholinyl)-6-quinolinyl)-3-pyridinyl)methanesulfonamide], on PI3Kα, the affinity, expressed as Ki, was 0.0063 µM. Moreover, the concentration for half-maximal inhibition (IC50) on mTOR came to 0.0051 µM; in assay [1], 0.0141 µM.

At PI3Kα, `O=S(=O)(Nc1cc(-c2ccc3nccc(OC4CCSC4)c3c2)cnc1Cl)c1ccc(F)cc1` (stereo not drawn) [Example 108, N-(2-chloro-5-(4-(tetrahydro-3-thiophenyloxy)-6-quinolinyl)-3-pyridinyl)-4-fluorobenzenesulfonamide] displayed a Ki of 0.0023 µM. Further, the figures for the IC50 (at mTOR; in assay [1]) were 0.0079 µM and 0.306 µM, respectively.

`CS(=O)(=O)Nc1cc(-c2ccc3nccc(-c4cccnc4)c3c2)cnc1Cl` [Example 116, N-(2-Chloro-5-(4-(pyridin-3-yl)quinolin-6-yl)pyridin-3-yl)methanesulfonamide] gave a Ki at PI3Kα of 0.0013 µM. Besides, the figures for the IC50 (on mTOR; in assay [1]) were 0.0029 µM and 0.019 µM, respectively.

For the molecule `COc1ncc(-c2ccc3nccc(N4CCOCC4)c3c2)cc1NS(C)(=O)=O` [Example 119, N-(2-Methoxy-5-(4-morpholinoquinolin-6-yl)pyridin-3-yl)methanesulfonamide], the Ki on PI3Kα worked out at 0.0047 µM. Besides, the IC50 was found to be 0.0176 µM against mTOR and 0.0448 µM in assay [1].

`CN(C)S(=O)(=O)Nc1cc(N2CCc3nccc(N4CCOCC4)c3C2)cnc1Cl` [Example 136, N′-(2-Chloro-5-(4-(4-morpholinyl)-7,8-dihydro-1,6-naphthyridin-6(5H)-yl)-3-pyridinyl)-N,N-dimethylsulfamide] came in with a Ki on PI3Kα of 0.111 µM. Further, the 50% inhibitory concentration (IC50) against mTOR amounted to 0.065 µM; in assay [1], 0.289 µM.

At PI3Kα, `COCCN(C)S(=O)(=O)Nc1cc(-c2ccc3nccc(N4CCOCC4)c3c2)cnc1Cl` [Example 123, N′-(2-Chloro-5-(4-(4-morpholinyl)-6-quinolinyl)-3-pyridinyl)-N-(2-methoxyethyl)-N-methylsulfamide] came in with a Ki of 0.0054 µM. Further, the half-inhibitory concentration (IC50) on mTOR was 0.0169 µM; in assay [1] it was 0.037 µM.

At PI3Kα, `COC(C)(C)CNc1ccnc2ccc(-c3cnc(Cl)c(NS(C)(=O)=O)c3)cc12` [Example 79, N-(2-chloro-5-(4-((2-methoxy-2-methylpropyl)amino)-6-quinolinyl)-3-pyridinyl)methanesulfonamide] displayed a Ki of 0.0823 µM. For the same molecule, the half-maximal inhibitory concentration (IC50) against mTOR worked out at 0.363 µM; in assay [1], 2.83 µM.

On to `CS(=O)(=O)Nc1cc(-c2ccc3nccc(N4Cc5ccc(F)cc5C4)c3c2)cnc1Cl` [Example 86, N-(2-chloro-5-(4-(5-fluoro-1,3-dihydro-2H-isoindol-2-yl)-6-quinolinyl)-3-pyridinyl)methanesulfonamide], for which the inhibitory constant (Ki) at PI3Kα stood at 0.016 µM. For the same molecule, the values for the IC50 (against mTOR; in assay [1]) were 0.162 µM and 0.667 µM, respectively.

Consider `C[C@@H]1CN(c2ccnc3ccc(-c4cnc(Cl)c(NS(C)(=O)=O)c4)cc23)C[C@H](C)O1` [Example 103, N-(2-chloro-5-(4-((2R,6S)-2,6-dimethyl-4-morpholinyl)-6-quinolinyl)-3-pyridinyl)methanesulfonamide], for which, at PI3Kα, the inhibition constant Ki is 0.0032 µM. In addition, the IC50 at mTOR came out at 0.0102 µM; in assay [1] it was 0.0556 µM.

Consider `CC(c1ccccc1)N1CCN(c2ccnc3ccc(-c4cnc(Cl)c(NS(C)(=O)=O)c4)cc23)CC1` (stereo not drawn) [Example 83, N-(2-chloro-5-(4-(4-(1-phenylethyl)-1-piperazinyl)-6-quinolinyl)-3-pyridinyl)methanesulfonamide], for which the Ki at PI3Kα worked out at 0.0136 µM. Also, the IC50 against mTOR worked out at 0.0821 µM; in assay [1], 0.758 µM.

(Values after US8415376B2, “Inhibitors of PI3 kinase” (Amgen Inc., priority 2008, dated 2013).)
